Read-outs that look alike come from different tables or passages of the source.
Experiments:
[1] = tested on: rat primary chromaffin cells; assay: βarr1 membrane recruitment in rat primary chromaffin cells; type: cell-based; conditions: cells infected with GFP, 10 μM UK14304 for 8 min
Experimental: β-arrestin membrane recruitment: βarr1 recruitment to rat primary chromaffin cell membranes or whole adrenal gland-derived plasma membranes was measured by western blotting in membrane preparations, essentially as described previously in Perry et al., 198 Science 834-36 (2002). Cultured chromaffin cells, isolated from rat adrenal glands, were transfected with the indicated recombinant adenoviruses and 24 hrs post-infection they were treated with vehicle or 10 μM UK14304 for 8 min. The cells were then harvested and plasma membranes prepared by hypotonic lysis with 5 mM TrisCl, 5 mM EDTA, pH 7.4, and subsequent ultracentrifugation at 47.000×g. The membranes were resuspended in RIPA buffer, containing Triton 0.5% and protease inhibitors, and then fractions of membrane lysates containing 50 μg of protein were loaded for SDS-PAGE, and subsequently western blotted with an antibody against rat βarr1 and −2 (A1CT40, a generous gift from Dr. R. J. Lefkowitz, Duke Univ. Medical Center, Durham, N.C.). Plasma membrane preparations from whole adrenal glands excised from in vivo infected rats were obtained by the same procedure. Blotting for actin in the same membrane lysates was also performed as loading control. βarr1 membrane recruitment was quantified as the densitometric ratio of βarr1 and actin bands detected in each sample.

chromaffin cells = tested on: chromaffin cells
Experimental: (§1) Plasma and in vitro catecholamine secretion measurements: Plasma Epi and NE levels were determined by ELISA, performed on rat and mouse plasma samples with the BI-CAT EIA kit from ALPCO Diagnostics (Windham, N.H.). In vitro Epi and NE secretion in the supernatant of cultured chromaffin cells was measured by use of the same ELISA kit essentially as described previously by Wilson & Kirschner, 3J. Neurosci. 1971-78 (1983). In vitro catecholamine (CA) secretion measurements. Briefly, 48 hrs post-isolation, chromaffin cells were placed in a balanced salts buffer and stimulated with 20 μM nicotine for 30 min, following pre-treatment with 10 μM UK14304 (Sigma-Aldrich) or vehicle for 30 min. At the end of nicotine treatment, the supernatant was collected for determination of its CA content. Adenoviral-transfected cells were infected 48 hrs post-isolation and cells were subjected to the various treatments 24 hrs after transfection (72 hrs post-isolation). In all experiments, the supernatants used for CA measurements were collected from cultures of equal numbers of cells as determined by cell counting and post-experiment protein determination in harvested cells.
Following this period, in vitro CA secretion assays were performed using nicotine to activate nicotinic cholinergic receptors (the physiological stimulus for CA secretion from these cells) and the α2AR agonist UK14304 to activate these negative feedback receptors.

HF rat chromaffin cells = assay: In vitro catecholamine secretion from chromaffin cells of HF and sham rats (nicotine stimulus, UK14304 pre-treatment); type: cell-based; conditions: for EC50: Rattus norvegicus
Source text: (§2) Experimental Procedures: Adrenal chromaffin cell isolation and culture: The animal models of heart failure: mice with myocardial-targeted overexpression of calsequestrin (CSQ/Tg mice); male Sprague-Dawley rats (450-500 g; Harlan) ten weeks post-cryo-myocardial infarction (cryo-MI) (HF rats); as well as CSQ/βARKct mice, were previously established and characterized. Harding et al., 98 P.N.A.S. USA, 5809-14 (2001); Most et al., 114 J. Clin. Invest. 1550-63 (2004). Nontransgenic littermate mice were used as healthy controls for the mouse heart failure model. Chromaffin cells were isolated from adrenal glands excised from these animals and cultured as described previously in Brede et al., 2003. […] Cells from separate isolations were used in each experiment.
as §1

[2] = tested on: chromaffin cells isolated from HF or sham-operated rats; conditions: 10 μM UK14304 pretreatment
Experimental: Calibration and assessment of intracellular Ca^2+ transients in chromaffin cells in response to K^+-induced depolarization were performed essentially as described. Brede, 2003; Zhou & Neher, 469 J. Physiol. 245-73 (1993). Changes in intracellular Ca^2+ were monitored fluorimetrically using the Ca^2+-sensitive probe Fura 2 (1 μM). The recording system included a Zeiss, Axiovert S170 inverted microscope fitted with epifluorescence (monochromator TILL Polychrome II, Germany). Cells were alternatively illuminated at 340 nm and 380 nm at a frequency of 140 Hz. Emission for each excitation wavelength was filtered at 510 nm and digitized using interface (EPC9, HEKA, Germany). […] Chromaffin cells isolated from HF or sham-operated rats were exposed to 10 μM UK14304 or vehicle for 30 min in culture medium containing a fixed Ca^2+ concentration of 2.5 mM, and then 150 mM KCl was added to induce depolarization. Only round-shaped, healthy, and attached chromaffin cells with a resting 340/380 ratio lower than 1 were selected for measurement.

[3] = tested on: CSQ/Tg mouse-derived chromaffin cells; assay: In vitro catecholamine secretion from chromaffin cells of CSQ/Tg and NLC mice (nicotine stimulus, UK14304 pre-treatment); type: cell-based; conditions: for Inhibition of Epi and NE secretion in response to nicotine: 10 μM UK14304 pre-treatment; for EC50: Mus musculus, n=6
Source text: as §2, §1

α2AR [4] = conditions: HF animal models and human heart failure patients; cited from earlier work
α2AR [5] = conditions: MOXSE and MOXCON trials; cited from earlier work
α2AR [6] = assay: Moxonidine treatment of HF rats, plasma catecholamine levels; type: in vivo, rat; conditions: 7d of moxonidine 1 mg/kg/d intraperitoneally
Experimental: In vivo adrenal gene delivery: All animal procedures and experiments were performed in accordance with the guidelines of the Institutional Animal Care and Use Committee of Thomas Jefferson University. For adrenal-specific in vivo gene delivery in HF rats, adenovirus was delivered directly to the adrenal gland using a surgical technique. Rats with chronic heart failure ten weeks after myocardial infarction were directly injected with virus into both of their adrenal glands, immediately after a transversal cut of the median abdomen was made and ventral visceral organs temporarily placed on the side so as to expose the retroperitoneal region. […] HF rats were treated with either AdβARKct or AdGFP as a control. […] For moxonidine treatment of HF rats, systemic administration of 1.0 mg/kg/d of moxonidine (delivered via a daily intraperitoneal injection) was initiated at the time of in vivo adrenal gene delivery and continued for seven days, at which time plasma was taken for determination of circulating catecholamine levels (see below).
as §1, with “Adenoviral-transfected cells were infected 48 hrs post-isolation and cells were subjected to the various treatments 24 hrs after transfection (72 hrs post-isolation).” left out

Brc1c(NC2=NCCN2)ccc2nccnc12 [UK14304]
βarr1 recruitment to chromaffin cell membranes in response to α2AR stimulation [1]: large βarr1 recruitment | Ability of UK14304 to inhibit CA secretion (chromaffin cells; cells from AdβARKct-treated rats, 10 μM UK14304): normal and similar to control cells | Effect of UK14304 on CA secretion in response to nicotine (chromaffin cells; chromaffin cells from AdGRK2-treated rats, 10 μM UK14304): lost | Effect of UK14304 on CA secretion in response to nicotine (chromaffin cells; chromaffin cells from control AdGFP-treated rats, 10 μM UK14304): abolishes CA secretion | Inhibition of secretion of both catecholamines in response to nicotine (HF rat chromaffin cells; 10 μM UK14304 pre-treatment): fails to inhibit secretion | EC50 (HF rat chromaffin cells; AdGFP cells, n=6, read-out: EC50 of UK14304-mediated inhibition of Epi secretion): 6400 ± 2500 nM | EC50 (HF rat chromaffin cells; AdGFP cells, n=6, read-out: EC50 of UK14304-mediated inhibition of NEpi secretion): 680 ± 25.1 nM | EC50 (HF rat chromaffin cells; AdβARKct cells, n=6, read-out: EC50 of UK14304-mediated inhibition of Epi secretion): 100 ± 5.2 nM | EC50 (HF rat chromaffin cells; AdβARKct cells, n=6, read-out: EC50 of UK14304-mediated inhibition of NEpi secretion): 110 ± 1.2 nM | Depolarization-induced Ca2+ entry ([2]; HF chromaffin cells): fails to significantly alter | Depolarization-induced Ca2+ entry ([2]; control (sham) cells): significantly inhibited | Inhibition of Epi and NE secretion in response to nicotine ([3]; CSQ/Tg mouse-derived chromaffin cells): completely fails to inhibit | EC50 ([3]; CSQ/Tg mouse-derived chromaffin cells, AdGFP cells, mean±s.e.m., read-out: EC50 of UK14304-mediated inhibition of Epi secretion): 5500 ± 1300 nM | EC50 ([3]; CSQ/Tg mouse-derived chromaffin cells, AdGFP cells, read-out: EC50 of UK14304-mediated inhibition of NEpi secretion): 8000 ± 2630 nM | EC50 ([3]; CSQ/Tg mouse-derived chromaffin cells, AdβARKct cells, read-out: EC50 of UK14304-mediated inhibition of Epi secretion): 200 ± 1.5 nM | EC50 ([3]; CSQ/Tg mouse-derived chromaffin cells, AdβARKct cells, read-out: EC50 of UK14304-mediated inhibition of NEpi secretion): 50 ± 1.4 nM | Inhibition of Epi and NE secretion in response to nicotine ([3]; control (NLC) cells): attenuates catecholamine release | Catecholamine secretion, UK14304 pre-treatment alone ([3]; without nicotine): no effect

Clc1cccc(Cl)c1N=C1NCCN1 [clonidine]
Sympatholytic response to clonidine administration (α2AR [4]): diminished sympatholytic responses

COc1nc(C)nc(Cl)c1N=C1NCCN1 [moxonidine]
Reason for early termination of the trials (α2AR [5]): excessive adverse effects and fatalities | SNS activity in heart failure patients (α2AR [5]): significant reduction of SNS activity | Circulating Epi levels (α2AR [6]; adrenal AdGFP-treated HF rats): virtually no effect | Circulating NEpi levels (α2AR [6]; adrenal AdGFP-treated HF rats): lowered | NE and Epi plasma levels (α2AR [6]; adrenal AdβARKct-treated HF rats): further significantly reduced

CN1CCCC1c1cccnc1 (stereo not shown) [nicotine]
Nicotine-stimulated Epi and NE secretion (chromaffin cells; chromaffin cells from AdGFP-, AdGRK2- and AdβARKct-treated rats, 20 μM nicotine): to an equal extent

Reference: patent US20100048479A1, “ADRENAL GRK2 ACTIVITY AS A THERAPEUTIC TARGET FOR HEART FAILURE” (priority 2006, published 2010)
